Measurements: US20170027171A1, “METHOD FOR CONTROLLING PLANT DISEASES” (Nihon Nohyaku Co., Ltd., priority 2014, published 2017)

Legend:
Assay type in all cases: in vivo
Septoria nodorum = assay: Test for wheat glume blotch, potted wheat, foliar spray before inoculation; settings: wheat in pots, 1000 L/ha spray, number of lesions per leaf ten days after inoculation
Source text: Test for Wheat Glume Blotch (Septoria nodorum)
(§1) The formulation produced in Formulation Example 1 was adjusted to predetermined concentrations and these prepared agrochemical liquids were applied to wheat plants in pots at a rate equivalent to 1000 L/ha with a spray gun. After the agrochemical treatment, the wheat pots were kept outdoors for 1 day or 7 days, and then spray-inoculated with wheat leaf blotch pathogen Septoria nodorum (2.4×10^6 spores/mL). After that, the wheat pots were kept in a greenhouse, in which the conditions favored the development of the disease.
Ten days after the inoculation, the number of lesions per leaf was counted for the evaluation of the control effect.

[1] = tested on: Septoria tritici, KUK-1-21 Strain; assay: Test for wheat leaf blotch, potted wheat, foliar spray before inoculation
Source text: Test for Wheat Leaf Blotch (Septoria tritici, KUK-1-21 Strain):
as §1, with “tritici (1×10^6” for “nodorum (2.4×10^6”, “disease. Three weeks after the inoculation, the lesion area index (0-10) was determined for the evaluation of the control effect.” for “disease.”

[2] = tested on: Pseudocercosporella herpotrichoides; assay: Test for wheat eyespot, potted wheat, foliar spray before inoculation; settings: wheat in pots, percentage of stems with lesions three weeks after inoculation
Source text: Test for Wheat Eyespot (Pseudocercosporella herpotrichoides)
The formulation produced in Formulation Example 1 was adjusted to predetermined concentrations and these prepared agrochemical liquids were applied to wheat plants in pots at a predetermined rate with a spray gun. After air-drying, the wheat pots were spray-inoculated with a spore suspension of wheat eyespot pathogen Pseudocercosporella herpotrichoides (4.2×10^6 spores/mL). After that, the wheat pots were kept in a greenhouse, in which the conditions favored the development of the disease. Three weeks after the inoculation, the percentage of stems with lesions was determined for the evaluation of the control effect.

Q: O=C1C(Cl)=C(Cl)C(=O)N1c1ccc(F)cc1 [Fluoroimide] was tested. Which “Control rate, Inoculated at 1 day post-treatment” value (Septoria nodorum; 62.5 ppm) did it give?
A: 63

Q: And the “Control rate, Inoculated at 1 day post-treatment” value (Septoria nodorum; 125 ppm)?
A: 90

Q: And the “Control rate, Inoculated at 1 day post-treatment” value (Septoria nodorum; 250 ppm)?
A: 94

Q: And the “Control rate, Inoculated at 1 day post-treatment” value (Septoria nodorum; 500 ppm)?
A: 96

Q: And the “Control rate, Inoculated at 7 days post-treatment” value (Septoria nodorum; 500 ppm)?
A: 85

Q: And the “Control rate, Inoculated at 1 day post-treatment” value ([1]; 62.5 ppm, wheat in pots, 1000 L/ha spray, lesion area index three weeks after inoculation)?
A: 62

Q: What about the “Control rate, Inoculated at 1 day post-treatment” value ([1]; 125 ppm, wheat in pots, 1000 L/ha spray, lesion area index three weeks after inoculation) of the same compound?
A: 84

Q: What about the “Control rate, Inoculated at 1 day post-treatment” value ([1]; 250 ppm, wheat in pots, 1000 L/ha spray, lesion area index three weeks after inoculation) of the same compound?
A: 95

Q: And the “Control rate, Inoculated at 7 days post-treatment” value ([1]; 500 ppm, wheat in pots, 1000 L/ha spray, lesion area index three weeks after inoculation)?
A: 65

Q: And the “Effect for controlling leaf blotch (in words)” value ([1]; summary of the results)?
A: highly effective

Q: And the “Control rate, Inoculated after treatment and air-drying” value ([2]; 125 ppm)?
A: 56

Q: What about the “Control rate, Inoculated after treatment and air-drying” value ([2]; 250 ppm) of the same compound?
A: 80

Q: What about the “Control rate, Inoculated after treatment and air-drying” value ([2]; 500 ppm) of the same compound?
A: 95
